Experimental data from patent publication US11453673B2, “Substituted [1,2,4]triazolo[4,3-a]pyrazines as phosphodiesterase inhibitors” (Eli Lilly and Company, priority 2018, dated 2022).

Legend:
Format in all cases: biochemical
[1] = biological target: human PDE6A/6B (Homo sapiens (Human), UniProt P16499+P35913); assay: PDE enzyme assay using [3H]cGMP as substrate (SPA); settings: [3H]cGMP 80 nM; read-out: PDE6AB IC50
Text: (§1) The nucleotide sequences encoding full-length human PDE1A (NP_001003683.1) and PDE1C (NP_005011.1) are inserted into pFastBac1 (Invitrogen) vector with an N-terminal HIS tag. The nucleotide sequences encoding full-length human PDE4D (NP_006194.2) and catalytic domain (residue 641-1141) of PDE3A (NP_000912.3) are inserted into pFastBac1 (Invitrogen) vector with a C-terminal HIS tag. The nucleotide sequences encoding full-length human PDE6A (NP_000431.2) and PDE6B (AAH00249.1) are inserted into pFastBacDual (Invitrogen) vector with an N-terminal HIS tag and N-terminal Flag tag, respectively, for production of PDE6A/6B dimer. Baculovirus generation and protein expression in Sf9 cells are carried out according to the protocol of Bac-to-Bac Baculovirus Expression system (Invitrogen). The nucleotide sequence encoding full-length human PDE1B (NP_000915.1) is inserted into pIEX4 (Novagen) with a C-terminal HIS tag, and both protein productions in Sf9 cells are carried out according to the vendor's protocol (Novagen). The His tagged PDE proteins are purified using Ni-NTA agarose (Qiagen) followed by size exclusion chromatography on a SUPERDEX© 200 column (GE Healthcare) in storage buffer (20 mM Tris-HCl, pH 7.5, 150 mM NaCl, 10% Glycerol). The Flag tagged PDE proteins including PDE6A/6B are purified using anti-Flag M2-agarose (Sigma), after purification through NiNTA column chromatography and eluted in storage buffer (50 mM Tris-HCl, pH 7.5, 150 mM NaCl, 10% Glycerol, 0.1 mg/ml Flag peptide). All purified proteins are stored at −80° C. in small aliquots.
(§2) All 3′, 5′ cyclic nucleotide PDE enzyme activities are measured with a radiometric enzyme assay based on SPA detection system. Compounds to be tested are diluted in pure DMSO using ten point concentration response curves. Maximal compound concentration in the reaction mixture is either 10 or 100 μM. Compounds at the appropriate concentration are pre-incubated with either of the PDE enzymes for 30 minutes before the reaction is started by the addition of substrate. Reactions are allowed to proceed for 60 minutes at room temperature. Next, reactions are stopped by addition of SPA beads. Samples are read 12 hours later in a MICROBETA™ TRILUX© Counter. IC50 values are calculated by plotting the normalized data vs. log [compound] and fitting the data using a four parameter logistic equation.
The following phosphodiesterase activities are measured using [3H]cGMP as reaction substrate: human PDE6A/6B. The catalytic active form of human PDE6 is a dimer composed of an a (human PDE6A) and […] (human PDE6B). The dimer of human PDE6A/6B is produced by the coexpression and purification strategy, using two purification steps, i.e., NiNTA and anti-FLAG Sepharose chromatography. The assay buffer is prepared to give a final concentration in the assay of 50 mM Tris-HCl, 8.3 mM MgCl2, 1.7 mM EDTA and 0.1% BSA at pH 7.5. The final enzyme concentration is 5 nM. The reactions are started by addition of the substrate, [3H]cGMP, to give a final concentration of 80 nM.

[2] = biological target: human PDE4D (Homo sapiens (Human), UniProt Q08499); assay: PDE enzyme assay using [3H]cAMP as substrate (SPA); settings: Mean ± standard deviation; [3H]cAMP 47 nM
Text: as §1, §2
(§3) The following PDE activities are measured using [3H]cAMP as reaction substrate: human PDE3A (catalytic domain) and human PDE4D. Both enzymes are cloned and purified following standard procedures. The assay buffer is prepared to give a final concentration in the assay of 50 mM Tris-HCl, 8.3 mM MgCl2, 1.7 mM EDTA and 0.1% BSA at pH 7.5. Final enzyme concentrations are 0.008 and 0.021 nM for PDE3A and PDE4D, respectively. Reactions are started by addition of the substrate, [3H]cAMP, to give a final concentration of 47 nM.

[3] = biological target: human PDE3A (catalytic domain) (Homo sapiens (Human), UniProt Q14432); assay: PDE enzyme assay using [3H]cAMP as substrate (SPA); settings: [3H]cAMP 47 nM
Text: as §1, §2, §3

[4] = biological target: human PDE1C (Homo sapiens (Human), UniProt Q14123); assay: Ca2+-calmodulin dependent PDE enzyme assay (radiometric SPA, [3H]cAMP); settings: Mean ± standard deviation; [3H]cAMP 47 nM; read-out: PDE 1C IC50
Text: as §1, §2
(§4) PDE1B, PDE1A, and PDE1C are cloned and purified following standard protein generation procedures. […] The final enzyme concentration is 0.25, 0.074 and 0.0012 nM, for PDE1A, PDE1B and PDE1C respectively. The reactions are started by addition of the substrate, [^3H]cAMP, to give a final concentration of 47 nM.

[5] = biological target: human PDE1A (Homo sapiens (Human), UniProt P54750); assay: as above; settings: Mean ± standard deviation; [3H]cAMP 47 nM; read-out: PDE 1A IC50
Text: as §1, §2, §4

[6] = biological target: human PDE1B (Homo sapiens (Human), UniProt Q01064); assay: as above; settings: Mean ± standard deviation; [3H]cAMP 47 nM; read-out: PDE 1B IC50
Text: as §1, §2, §4

human PDE6A/6B, sequence (P16499 whole entry, the tested form may be a part): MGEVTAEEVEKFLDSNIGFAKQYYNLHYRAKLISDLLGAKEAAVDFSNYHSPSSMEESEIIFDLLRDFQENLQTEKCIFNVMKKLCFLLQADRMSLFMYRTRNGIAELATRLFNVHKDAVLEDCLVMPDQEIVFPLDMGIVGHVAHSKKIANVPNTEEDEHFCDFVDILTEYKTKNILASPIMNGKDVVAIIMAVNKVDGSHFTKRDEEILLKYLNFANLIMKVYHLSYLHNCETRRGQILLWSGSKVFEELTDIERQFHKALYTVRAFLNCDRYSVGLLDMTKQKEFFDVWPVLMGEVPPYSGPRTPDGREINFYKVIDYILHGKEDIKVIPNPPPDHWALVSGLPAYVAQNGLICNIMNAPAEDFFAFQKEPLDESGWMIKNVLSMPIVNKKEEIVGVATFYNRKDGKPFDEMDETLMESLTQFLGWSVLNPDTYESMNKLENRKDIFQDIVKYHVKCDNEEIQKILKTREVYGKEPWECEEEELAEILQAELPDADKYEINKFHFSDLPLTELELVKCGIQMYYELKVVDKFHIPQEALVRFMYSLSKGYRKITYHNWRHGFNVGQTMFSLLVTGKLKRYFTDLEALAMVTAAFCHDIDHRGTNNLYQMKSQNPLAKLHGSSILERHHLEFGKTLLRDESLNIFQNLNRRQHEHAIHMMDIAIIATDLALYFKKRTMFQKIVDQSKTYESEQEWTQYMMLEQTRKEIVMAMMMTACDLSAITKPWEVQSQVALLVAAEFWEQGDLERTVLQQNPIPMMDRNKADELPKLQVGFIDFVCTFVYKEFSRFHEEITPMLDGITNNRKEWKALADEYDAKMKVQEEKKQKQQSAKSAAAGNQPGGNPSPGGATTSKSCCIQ
human PDE6A/6B, sequence (P35913 whole entry, the tested form may be a part): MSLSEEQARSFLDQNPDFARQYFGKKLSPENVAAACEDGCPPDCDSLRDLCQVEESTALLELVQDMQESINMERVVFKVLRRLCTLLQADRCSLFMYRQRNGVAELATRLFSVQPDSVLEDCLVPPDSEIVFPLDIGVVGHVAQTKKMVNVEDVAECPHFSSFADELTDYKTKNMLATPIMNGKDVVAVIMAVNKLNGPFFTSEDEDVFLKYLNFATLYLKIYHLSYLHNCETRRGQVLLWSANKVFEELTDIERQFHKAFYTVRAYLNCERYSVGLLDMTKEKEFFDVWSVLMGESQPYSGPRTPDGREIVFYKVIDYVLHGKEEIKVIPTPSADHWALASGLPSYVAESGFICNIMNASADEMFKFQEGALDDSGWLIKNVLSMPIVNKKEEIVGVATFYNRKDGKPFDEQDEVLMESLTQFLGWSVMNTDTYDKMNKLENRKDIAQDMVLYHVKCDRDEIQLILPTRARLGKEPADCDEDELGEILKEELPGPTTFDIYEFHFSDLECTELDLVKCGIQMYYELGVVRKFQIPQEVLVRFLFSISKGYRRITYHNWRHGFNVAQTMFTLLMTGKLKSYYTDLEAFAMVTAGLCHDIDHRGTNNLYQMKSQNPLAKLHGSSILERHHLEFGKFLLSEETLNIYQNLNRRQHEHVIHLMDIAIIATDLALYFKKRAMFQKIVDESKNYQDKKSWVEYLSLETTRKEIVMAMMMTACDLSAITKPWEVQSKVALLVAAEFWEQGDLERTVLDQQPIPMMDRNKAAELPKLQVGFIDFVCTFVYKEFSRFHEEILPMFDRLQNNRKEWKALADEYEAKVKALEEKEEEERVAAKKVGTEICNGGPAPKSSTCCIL
human PDE4D, sequence (Q08499 other isoform, or with tags, fused parts or gaps): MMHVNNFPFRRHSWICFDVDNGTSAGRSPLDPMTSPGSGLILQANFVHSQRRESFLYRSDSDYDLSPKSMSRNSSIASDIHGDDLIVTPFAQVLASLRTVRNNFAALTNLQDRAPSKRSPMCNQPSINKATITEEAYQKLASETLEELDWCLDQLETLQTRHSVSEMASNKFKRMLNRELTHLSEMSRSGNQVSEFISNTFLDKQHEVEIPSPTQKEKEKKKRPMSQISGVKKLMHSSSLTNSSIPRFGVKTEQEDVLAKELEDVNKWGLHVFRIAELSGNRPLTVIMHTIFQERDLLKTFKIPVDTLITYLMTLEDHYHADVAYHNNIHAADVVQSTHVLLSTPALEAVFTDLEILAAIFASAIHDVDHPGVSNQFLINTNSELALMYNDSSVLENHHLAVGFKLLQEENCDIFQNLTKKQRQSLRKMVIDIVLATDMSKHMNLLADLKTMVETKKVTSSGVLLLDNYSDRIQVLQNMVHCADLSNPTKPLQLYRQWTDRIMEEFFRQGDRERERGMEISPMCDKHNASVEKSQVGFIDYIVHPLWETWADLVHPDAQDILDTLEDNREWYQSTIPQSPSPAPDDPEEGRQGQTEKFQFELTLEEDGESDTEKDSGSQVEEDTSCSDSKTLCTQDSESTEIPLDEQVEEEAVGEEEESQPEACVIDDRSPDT
human PDE3A (catalytic domain), sequence (Q14432 641-1141): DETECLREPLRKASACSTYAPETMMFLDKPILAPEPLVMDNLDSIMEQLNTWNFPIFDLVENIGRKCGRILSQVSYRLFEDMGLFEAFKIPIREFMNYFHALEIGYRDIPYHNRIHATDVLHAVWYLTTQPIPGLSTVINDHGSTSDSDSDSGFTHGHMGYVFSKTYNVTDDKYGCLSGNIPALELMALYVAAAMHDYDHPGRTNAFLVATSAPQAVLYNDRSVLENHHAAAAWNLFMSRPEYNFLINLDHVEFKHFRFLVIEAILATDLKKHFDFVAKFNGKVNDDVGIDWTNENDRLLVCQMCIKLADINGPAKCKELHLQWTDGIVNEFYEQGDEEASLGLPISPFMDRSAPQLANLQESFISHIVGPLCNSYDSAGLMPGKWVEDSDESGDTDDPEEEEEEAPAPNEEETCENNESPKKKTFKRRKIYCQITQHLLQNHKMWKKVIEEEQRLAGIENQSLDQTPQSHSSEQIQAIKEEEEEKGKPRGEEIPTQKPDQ

SMILES | IC50 [1] [µM] | IC50 [2] [µM] | IC50 [3] [µM] | IC50 [4] [µM] | IC50 [5] [µM] | IC50 [6] [µM]
Cc1c(C)n2c(C3(C4CC4)CC3)nnc2c(=O)n1CC1(C)CC1 [Example 15, 3-(1-Cyclopropylcyclopropyl)-5,6-dimethyl-7-[(1-methylcyclopropyl)methyl]-[1,2,4]triazolo[4,3-a]pyrazin-8-one] | > 10 | 14 ± 1.3 | 9.6 | 0.0014 ± 0.0003 | 0.0031 ± 0.0011 | 0.0049 ± 0.0018
CCCCn1c(C)c(C)n2c(C3(C4CC4)CC3)nnc2c1=O [Example 5, 7-Butyl-3-(1-cyclopropylcyclopropyl)-5,6-dimethyl-[1,2,4]triazolo[4,3-a]pyrazin-8-one] | > 10 | 29.9 | > 100 | 0.0027 ± 0.00016 | 0.0115 ± 0.0036 | 0.0111 ± 0.003
CCCCn1c(C)c(CC)n2c(C3(C4CC4)CC3)nnc2c1=O [Example 16, 7-Butyl-3-(1-cyclopropylcyclopropyl)-5-ethyl-6-methyl-[1,2,4]triazolo[4,3-a]pyrazin-8-one] | > 10 | 22.3 | > 100 | 0.0012 ± 0.00094 | 0.00867 ± 0.00791 | 0.00654 ± 0.00261
Cc1c(C)n2c(C3(C4CC4)CC3)nnc2c(=O)n1CC1CC1 [Example 2, 3-(1-Cyclopropylcyclopropyl)-7-(cyclopropylmethyl)-5,6-dimethyl-[1,2,4]triazolo[4,3-a]pyrazin-8-one] | > 10 | 23.8 ± 0.8 | > 100 | 0.00281 ± 0.00088 | 0.00373 ± 0.00202 | 0.00411 ± 0.0011
Cn1cc(Cc2cn3c(C4(C5CC5)CC4)nnc3c(=O)n2CC2CC2)cn1 [Example 1, 3-(1-Cyclopropylcyclopropyl)-7-(cyclopropylmethyl)-6-[(1-methylpyrazol-4-yl)methyl]-[1,2,4]triazolo[4,3-a]pyrazin-8-one] | > 10 | 5.59 | > 100 | 0.012 ± 0.004 | 0.0203 ± 0.0005 | 0.0294 ± 0.0116
Cc1c(C)n2c(C3(C4CC4)CC3)nnc2c(=O)n1CC1CCC1 [Example 4, 7-(Cyclobutylmethyl)-3-(1-cyclopropylcyclopropyl)-5,6-dimethyl-[1,2,4]triazolo[4,3-a]pyrazin-8-one] | > 10 | 24 | > 100 | 0.00106 ± 0.00024 | 0.00371 ± 8e-05 | 0.00365 ± 0.00188
CCCCCn1c(C)c(C)n2c(C3(C4CC4)CC3)nnc2c1=O [Example 3, 3-(1-Cyclopropylcyclopropyl)-5,6-dimethyl-7-pentyl-[1,2,4]triazolo[4,3-a]pyrazin-8-one] | > 10 | 14.3 | > 100 | 0.00126 ± 0.00061 | 0.011 ± 0.002 | 0.00936 ± 0.00201

Further lines, with some results ahead:

IC50 [1] [µM] | IC50 [2] [µM] | IC50 [3] [µM] | SMILES | IC50 [4] [µM] | IC50 [5] [µM] | IC50 [6] [µM]
> 10 | 46.5 | > 100 | CCC1(c2nnc3c(=O)n(CC4CCCCO4)c(C)c(C)n23)CC1 (racemic) [Example 7, 3-(1-Ethylcyclopropyl)-5,6-dimethyl-7-(tetrahydropyran-2-ylmethyl)-[1,2,4]triazolo[4,3-a]pyrazin-8-one] | 0.00776 | – | –
7.62 | 31 | > 100 | CCC1(c2nnc3c(=O)n(CC4CCCCO4)c(C)c(C)n23)CC1 (single isomer, unassigned) [Example 12, 3-(1-Ethylcyclopropyl)-5,6-dimethyl-7-(tetrahydropyran-2-ylmethyl)-[1,2,4]triazolo[4,3-a]pyrazin-8-one] | 0.0132 | 0.0446 | –
> 10 | > 100 | > 100 | Cc1c(C)n2c(C3(C)CC3)nnc2c(=O)n1CC1CCCCO1 (single isomer, unassigned) [Example 13, 5,6-Dimethyl-3-(1-methylcyclopropyl)-7-(tetrahydropyran-2-ylmethyl)-[1,2,4]triazolo[4,3-a]pyrazin-8-one] | – | – | –
> 10 | 40.8 | > 100 | Cc1c(C)n2c(C3(C)CC3)nnc2c(=O)n1CC1CCCCO1 (single isomer, unassigned) [Example 14, 5,6-Dimethyl-3-(1-methylcyclopropyl)-7-(tetrahydropyran-2-ylmethyl)-[1,2,4]triazolo[4,3-a]pyrazin-8-one] | – | – | –
> 10 | 21.4 | > 100 | Cc1c(C)n2c(C3(C4CC4)CC3)nnc2c(=O)n1CC1CCCCO1 (single isomer, unassigned) [Example 10] | 0.002 ± 0.000311 | – | –
> 10 | 30.9 | > 100 | Cc1c(C)n2c(C3(C4CC4)CC3)nnc2c(=O)n1CC1CCCCO1 (racemic) [Example 6, 3-(1-cyclopropylcyclopropyl)-5,6-dimethyl-7-(tetrahydropyran-2-ylmethyl)-[1,2,4]triazolo[4,3-a]pyrazin-8-one] | 0.00188 ± 0.00056 | – | –
> 10 | 67.2 | > 100 | CCC1(c2nnc3c(=O)n(CC4CCCCO4)c(C)c(C)n23)CC1 (single isomer, unassigned) [Example 11, 3-(1-Ethylcyclopropyl)-5,6-dimethyl-7-(tetrahydropyran-2-ylmethyl)-[1,2,4]triazolo[4,3-a]pyrazin-8-one] | 0.00477 ± 6e-05 | 0.0132 | –
> 10 | 33.1 | > 100 | Cc1c(C)n2c(C3(C4CC4)CC3)nnc2c(=O)n1CC1CCCCO1 (single isomer, unassigned) [Example 9, 3-(1-Cyclopropylcyclopropyl)-5,6-dimethyl-7-(tetrahydropyran-2-ylmethyl)-[1,2,4]triazolo[4,3-a]pyrazin-8-one] | 0.000958 ± 0.000487 | – | –
2.66 | 57.7 | > 100 | Cc1c(C)n2c(C3(C)CC3)nnc2c(=O)n1CC1CCCCO1 (racemic) [Example 8, 5,6-Dimethyl-3-(1-methylcyclopropyl)-7-(tetrahydropyran-2-ylmethyl)-[1,2,4]triazolo[4,3-a]pyrazin-8-one] | – | – | –
